Reference: ChEMBL document CHEMBL1126053, “4-Amido-2-carboxytetrahydroquinolines. Structure-activity relationships for antagonism at the glycine site of the NMDA receptor” (J Med Chem, 1992)
pIC50: −log10 of the molar value.

Target: T1, Glutamate receptor ionotropic, NMDA 1 (Rattus norvegicus, UniProt P35439)
Test: Inhibition of [3H]- glycine binding to NMDA receptor from rat cortical membranes.
Format: cell membranes, Membrane

Point of comparison: `CC(=O)N[C@H]1C[C@H](C(=O)O)Nc2cc(Cl)cc(Cl)c21`, pIC50 6.05. Against it:
- N[C@H](Cc1ccccc1)C(=O)N[C@H]1C[C@H](C(=O)O)Nc2cc(Cl)cc(Cl)c21 — 0.90 log units lower, 5.15
- N[C@@H](Cc1ccccc1)C(=O)N[C@H]1C[C@H](C(=O)O)Nc2cc(Cl)cc(Cl)c21 — within 0.2 log units, 5.98
- N[C@@H](Cc1ccccc1)C(=O)N[C@@H]1C[C@@H](C(=O)O)Nc2cc(Cl)cc(Cl)c21 — lower, < 4.00
- O=C(Nc1ccccc1)N[C@H]1C[C@H](C(=O)O)Nc2cc(Cl)cc(Cl)c21 — 2.08 log units higher, 8.13
- O=C(Cc1ccc(Cl)cc1)N[C@H]1C[C@H](C(=O)O)Nc2cc(Cl)cc(Cl)c21 — 1.23 log units higher, 7.28
- O=C(Cc1ccccc1)N[C@H]1C[C@H](C(=O)O)Nc2cc(I)cc(Cl)c21 — 1.33 log units higher, 7.38
- O=C(N[C@H]1C[C@H](C(=O)O)Nc2cc(Cl)cc(Cl)c21)C(c1ccccc1)c1ccccc1 — 1.16 log units higher, 7.21
- O=C(N[C@@H]1C[C@H](C(=O)O)Nc2cc(Cl)cc(Cl)c21)c1ccccc1 — 0.97 log units lower, 5.08
- COc1ccc(CC(=O)N[C@H]2C[C@H](C(=O)O)Nc3cc(Cl)cc(Cl)c32)cc1 — 1.36 log units higher, 7.41
- O=C(N[C@H]1C[C@H](C(=O)O)Nc2cc(Cl)cc(Cl)c21)C1CCCCC1 — 0.72 log units higher, 6.77
- O=C(N[C@H]1C[C@H](C(=O)O)Nc2cc(Cl)cc(Cl)c21)C1c2ccccc2-c2ccccc21 — 1.55 log units higher, 7.60
- Cc1ccccc1NC(=O)N[C@H]1C[C@H](C(=O)O)Nc2cc(Cl)cc(Cl)c21 — 2.09 log units higher, 8.14
- O=C(NCc1ccccc1)N[C@H]1C[C@H](C(=O)O)Nc2cc(Cl)cc(Cl)c21 — 1.47 log units higher, 7.52
- N[C@@H]1C[C@H](C(=O)O)Nc2cc(Cl)cc(Cl)c21 — 1.20 log units lower, 4.85
- O=C(Cc1ccccc1)N[C@H]1C[C@H](C(=O)O)Nc2cc(Cl)cc(I)c21 — 1.95 log units higher, 8.00
- O=C(O)[C@H]1C[C@H](NC(=S)Nc2ccccc2)c2c(Cl)cc(Cl)cc2N1 — 1.00 log units higher, 7.05
- Nc1ccc(CC(=O)N[C@H]2C[C@H](C(=O)O)Nc3cc(Cl)cc(Cl)c32)cc1 — 1.69 log units higher, 7.74
- O=C(Cc1ccc(O)cc1)N[C@H]1C[C@H](C(=O)O)Nc2cc(Cl)cc(Cl)c21 — 1.47 log units higher, 7.52
- O=C(N[C@H]1C[C@H](C(=O)O)Nc2cc(Cl)cc(Cl)c21)c1ccccc1 — 0.95 log units higher, 7.00
- CCCC(=O)N[C@H]1C[C@H](C(=O)O)Nc2cc(Cl)cc(Cl)c21 — 0.38 log units higher, 6.43
- O=C(O)[C@H]1C[C@H](N2Cc3ccccc3C2=O)c2c(Cl)cc(Cl)cc2N1 — 1.52 log units higher, 7.57
- O=C(O)[C@H]1C[C@H](NCc2ccccc2)c2c(Cl)cc(Cl)cc2N1 — 1.08 log units lower, 4.97
- O=C(O)[C@H]1C[C@H](N2CCCC2=O)c2c(Cl)cc(Cl)cc2N1 — 1.29 log units higher, 7.34
- O=C(Cc1cccs1)N[C@H]1C[C@H](C(=O)O)Nc2cc(Cl)cc(Cl)c21 — 1.44 log units higher, 7.49
- CC(C)(C)OC(=O)N[C@@H]1C[C@H](C(=O)O)Nc2cc(Cl)cc(Cl)c21 — 1.11 log units lower, 4.94
- N[C@H](Cc1ccccc1)C(=O)N[C@@H]1C[C@@H](C(=O)O)Nc2cc(Cl)cc(Cl)c21 — lower, < 3.00
- O=C(N[C@H]1C[C@H](C(=O)O)Nc2cc(Cl)cc(Cl)c21)c1ccco1 — 0.77 log units higher, 6.82
- O=C(O)[C@H]1C[C@H](NC(=O)N2CCc3ccccc32)c2c(Cl)cc(Cl)cc2N1 — 0.61 log units higher, 6.66
- Cc1cc(C)c2c(c1)N[C@@H](C(=O)O)C[C@@H]2NC(=O)Cc1ccccc1 — 1.12 log units higher, 7.17
- O=C(CCc1ccccc1)N[C@H]1C[C@H](C(=O)O)Nc2cc(Cl)cc(Cl)c21 — 1.07 log units higher, 7.12
- O=C(CCCc1ccccc1)N[C@H]1C[C@H](C(=O)O)Nc2cc(Cl)cc(Cl)c21 — 0.72 log units higher, 6.77
- O=C(O)[C@H]1C[C@H](NS(=O)(=O)c2ccccc2)c2c(Cl)cc(Cl)cc2N1 — 0.77 log units lower, 5.28
- O=C(O)[C@H]1C[C@H](N2C(=O)c3ccccc3C2=O)c2c(Cl)cc(Cl)cc2N1 — 0.33 log units lower, 5.72
- O=C(CC1CCCCC1)N[C@H]1C[C@H](C(=O)O)Nc2cc(Cl)cc(Cl)c21 — 0.91 log units higher, 6.96
- O=C(O)[C@H]1C[C@H](N2CCN(c3ccccc3)C2=O)c2c(Cl)cc(Cl)cc2N1 — 2.17 log units higher, 8.22
- O=C(O)[C@H]1C[C@H](N2Cc3ccccc3CC2=O)c2c(Cl)cc(Cl)cc2N1 — 1.09 log units higher, 7.14
- O=C(Cc1ccsc1)N[C@H]1C[C@H](C(=O)O)Nc2cc(Cl)cc(Cl)c21 — 1.47 log units higher, 7.52
- CC(C)(C)OC(=O)N[C@H]1C[C@H](C(=O)O)Nc2cc(Cl)cc(Cl)c21 — within 0.2 log units, 6.03
- O=C(N[C@H]1C[C@H](C(=O)O)Nc2cc(Cl)cc(Cl)c21)c1ccncc1 — within 0.2 log units, 6.20
- O=C(O)[C@H]1C[C@H](N2Cc3ccccc3NC2=O)c2c(Cl)cc(Cl)cc2N1 — 0.24 log units higher, 6.29
- CN(C(=O)N[C@H]1C[C@H](C(=O)O)Nc2cc(Cl)cc(Cl)c21)c1ccccc1 — 1.30 log units higher, 7.35
- N#CN/C(=N\[C@H]1C[C@H](C(=O)O)Nc2cc(Cl)cc(Cl)c21)Nc1ccccc1 — within 0.2 log units, 6.24
- O=C(O)[C@H]1CCc2c(Cl)cc(Cl)cc2N1 — 0.86 log units lower, 5.19
- Cc1ccc(NC(=O)N[C@H]2C[C@H](C(=O)O)Nc3cc(Cl)cc(Cl)c32)cc1 — 2.25 log units higher, 8.30
- Cc1cccc(NC(=O)N[C@H]2C[C@H](C(=O)O)Nc3cc(Cl)cc(Cl)c32)c1 — 1.69 log units higher, 7.74
- O=C(N[C@H]1C[C@H](C(=O)O)Nc2cc(Cl)cc(Cl)c21)OCc1ccccc1 — 1.05 log units higher, 7.10
- O=C(NC1CCCCC1)N[C@H]1C[C@H](C(=O)O)Nc2cc(Cl)cc(Cl)c21 — 1.50 log units higher, 7.55
- Cc1ccc(CC(=O)N[C@H]2C[C@H](C(=O)O)Nc3cc(Cl)cc(Cl)c32)cc1 — 1.42 log units higher, 7.47
- O=C(NCc1ccccc1)[C@H]1C[C@H](C(=O)O)Nc2cc(Cl)cc(Cl)c21 — 0.28 log units lower, 5.77
- O=C(CN[C@H]1C[C@H](C(=O)O)Nc2cc(Cl)cc(Cl)c21)Nc1ccccc1 — 0.33 log units higher, 6.38
- O=C(C[C@H]1C[C@H](C(=O)O)Nc2cc(Cl)cc(Cl)c21)Nc1ccccc1 — 1.47 log units higher, 7.52
- O=C(O)[C@H]1C[C@H](NC(=O)N(c2ccccc2)c2ccccc2)c2c(Cl)cc(Cl)cc2N1 — 1.67 log units higher, 7.72
- O=C(Nc1ccccc1)N[C@H]1C[C@H](C(=O)O)Nc2cc(Cl)cc(I)c21 — 2.17 log units higher, 8.22
- N[C@H]1C[C@H](C(=O)O)Nc2cc(Cl)cc(Cl)c21 — 1.10 log units lower, 4.95
- O=C(Cc1ccccc1)N[C@H]1C[C@H](C(=O)O)Nc2cc(Cl)cc(Cl)c21 (stereo in doubt; 14) — 1.80 log units higher, 7.85
- O=C(Cc1ccccc1)N[C@H]1C[C@H](C(=O)O)Nc2cc(Cl)cc(Cl)c21 (stereo in doubt; 15) — 1.91 log units higher, 7.96
- O=C(Cc1ccccc1)N[C@H]1C[C@H](C(=O)O)Nc2cc(Cl)cc(Cl)c21 (stereo in doubt; 16) — 0.82 log units lower, 5.23

Target: T1, Glutamate receptor ionotropic, NMDA 1
Test: Inhibition of [3H]- glycine binding to N-methyl-D-aspartate glutamate receptor from rat cortical membranes
Format: cell membranes, Membrane

In the case of `O=C(Nc1cccc2ccccc12)N[C@H]1C[C@H](C(=O)O)Nc2cc(Cl)cc(Cl)c21`, the pIC50 was 7.96.
